Source: PubChem BioAssay AID248 (DTP/NCI, 2004)
“And” between values parts separate entries of the source, which are not always exact repeats. Equal values may be shown once. Inconclusive results and toxic doses are left out. Cut-off read from the data, not from the text of the source: active = T/C of 150% or more; inactive = T/C below 125%.

System: L1210 leukemia ip in BDF1 mice, survival T/C
Assay: NCI In Vivo Anticancer Drug Screen. Data for tumor model L1210 Leukemia (intraperitoneal) in B6D2F1 (BDF1) mice
Conditions: endpoint: mean survival time, higher = longer survival
Method in brief: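 Value reflects the ratio of survival in compound-treated mice to survival in vehicle-treated controls, with both groups carrying the same transplanted tumor.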

[1] = dose: 100.0 mg/kg/injection, schedule: Q04DX002 (ip), vehicle: Klucel (hydroxypropylcellulose) (HPC)
[2] = dose: 200.0 mg/kg/injection, schedule: Q04DX002 (ip), vehicle: Klucel (hydroxypropylcellulose) (HPC)
[3] = dose: 400.0 mg/kg/injection, schedule: Q04DX002 (ip), vehicle: Klucel (hydroxypropylcellulose) (HPC)
[4] = dose: 50.0 mg/kg/injection, schedule: Q04DX002 (ip), vehicle: Klucel (hydroxypropylcellulose) (HPC)
[5] = dose: 100.0 mg/kg/injection, schedule: Q01DX009 (ip), vehicle: saline with Tween-80
[6] = dose: 100.0 mg/kg/injection, schedule: Q04DX003 (ip), vehicle: saline with Tween-80
[7] = dose: 200.0 mg/kg/injection, schedule: Q01DX009 (ip), vehicle: saline with Tween-80
[8] = dose: 200.0 mg/kg/injection, schedule: Q04DX003 (ip), vehicle: saline with Tween-80
[9] = dose: 400.0 mg/kg/injection, schedule: Q01DX009 (ip), vehicle: saline with Tween-80
[10] = dose: 400.0 mg/kg/injection, schedule: Q04DX003 (ip), vehicle: saline with Tween-80
[11] = dose: 100.0 mg/kg/injection, schedule: Q01DX001 (ip), vehicle: other
[12] = dose: 200.0 mg/kg/injection, schedule: Q01DX001 (ip), vehicle: other
[13] = dose: 400.0 mg/kg/injection, schedule: Q01DX001 (ip), vehicle: other
[14] = dose: 100.0 mg/kg/injection, schedule: Q04DX003 (ip), vehicle: saline
[15] = dose: 200.0 mg/kg/injection, schedule: Q04DX003 (ip), vehicle: saline
[16] = dose: 400.0 mg/kg/injection, schedule: Q04DX003 (ip), vehicle: saline
[17] = dose: 50.0 mg/kg/injection, schedule: Q01DX001 (ip), vehicle: saline
[18] = dose: 100.0 mg/kg/injection, schedule: Q01DX001 (ip), vehicle: saline
[19] = dose: 200.0 mg/kg/injection, schedule: Q01DX001 (ip), vehicle: saline
[20] = dose: 400.0 mg/kg/injection, schedule: Q01DX001 (ip), vehicle: saline
[21] = dose: 100.0 mg/kg/injection, schedule: Q01DX009 (ip), vehicle: saline
[22] = dose: 200.0 mg/kg/injection, schedule: Q01DX009 (ip), vehicle: saline
[23] = dose: 400.0 mg/kg/injection, schedule: Q01DX009 (ip), vehicle: saline
[24] = dose: 100.0 mg/kg/injection, schedule: Q01DX009 (ip), vehicle: Klucel (hydroxypropylcellulose) (HPC)
[25] = dose: 50.0 mg/kg/injection, schedule: Q01DX009 (ip), vehicle: saline with Tween-80

Measured: T/C

CCC(C)(C)NC(N)=O
inactive: [1] 99 % of control | [2] 92 % of control | [3] 96 % of control

COc1ccc(OC)c(NC(=S)N/N=C(/C)c2cc([N+](=O)[O-])c(O)cc2O)c1
inactive: dose: 12.5 mg/kg/injection, schedule: Q04DX002 (ip), vehicle: Klucel (hydroxypropylcellulose) (HPC) 102 % of control | dose: 25.0 mg/kg/injection, schedule: Q04DX002 (ip), vehicle: Klucel (hydroxypropylcellulose) (HPC) 102 % of control | [4] 105 % of control

C=C1CC2(CCC3(CC2)CC(=C)C(=O)O3)OC1=O (centres undefined)
inactive: dose: 12.5 mg/kg/injection, schedule: Q04DX003 (ip), vehicle: saline 102 % of control | dose: 25.0 mg/kg/injection, schedule: Q04DX003 (ip), vehicle: saline 116 % of control | dose: 50.0 mg/kg/injection, schedule: Q04DX003 (ip), vehicle: saline 119 % of control

CC(=O)CC(=O)NC1CCCCC1
inactive: [5] 105 % of control | [6] 96 % of control | [7] 100 % of control | [8] 94 % of control | [9] 95 % of control | [10] 94 % of control

O=C(CCC(C(=O)Nc1ccccc1)C(O)(c1ccccc1)c1ccccc1)Nc1ccccc1 (centres undefined)
inactive: [11] 91 % of control | [12] 91 % of control | [13] 89 % of control

CC1(CCC(=O)O)CCCCC1=O (centres undefined)
inactive: [14] 96 % of control | [15] 96 % of control | [16] 112 % of control

CCCCOP(=O)(/C=C/c1ccc(NC(C)=O)cc1)OCCCC
inactive: [1] 104 % of control | [2] 96 % of control | [3] 89 % of control

C/C(=N\N1CCCCC1)c1ccc(NC(=O)C(Cl)Cl)cc1
inactive: [5] 106 % of control | [7] 97 % of control | [9] 89 % of control

NC(N)=N/N=C/N/N=C/c1ccccc1O
inactive: dose: 60.0 mg/kg/injection, schedule: Q01DX Z (oral), vehicle: carboxymethylcellulose (CMC) 91 % of control | dose: 120.0 mg/kg/injection, schedule: Q01DX Z (oral), vehicle: carboxymethylcellulose (CMC) 91 % of control | dose: 240.0 mg/kg/injection, schedule: Q01DX Z (oral), vehicle: carboxymethylcellulose (CMC) 100 % of control | dose: 480.0 mg/kg/injection, schedule: Q01DX Z (oral), vehicle: carboxymethylcellulose (CMC) 100 % of control

Cc1ccc(C(C)C)c(OC(=O)Nc2cc(Cl)ccc2C)c1
inactive: dose: 100.0 mg/kg/injection, schedule: Q01DX001 (ip), vehicle: saline with Tween-80 98 % of control | [5] 100 % of control and 102 % of control | dose: 100.0 mg/kg/injection, schedule: Q04DX002 (ip), vehicle: saline with Tween-80 87 % of control and 88 % of control | [14] 92 % of control | dose: 200.0 mg/kg/injection, schedule: Q01DX001 (ip), vehicle: saline with Tween-80 95 % of control | [7] 102 % of control and 113 % of control | dose: 200.0 mg/kg/injection, schedule: Q04DX002 (ip), vehicle: saline with Tween-80 102 % of control and 89 % of control | [15] 92 % of control | dose: 400.0 mg/kg/injection, schedule: Q01DX001 (ip), vehicle: saline with Tween-80 93 % of control | [9] 100 % of control and 89 % of control | dose: 400.0 mg/kg/injection, schedule: Q04DX002 (ip), vehicle: saline with Tween-80 89 % of control and 91 % of control | [16] 92 % of control

NC(=O)C(c1ccccc1)C(O)c1ccccc1 (centres undefined)
inactive: [17] 101 % of control | [18] 95 % of control | [19] 97 % of control | [20] 101 % of control

CC(=O)c1ccc(OCc2ccccc2)cc1O
inactive: [21] 111 % of control | [22] 100 % of control | [23] 100 % of control

O=c1[nH]cnc2c(Cl)c(C(Cl)(Cl)Cl)nn12 (tested in a mixture with another compound)
inactive: [5] 97 % of control | [6] 104 % of control | [7] 92 % of control | [8] 98 % of control | [9] 97 % of control | [10] 97 % of control

O=C(O)CCCCCCCCCCN1C(=O)c2cccc([N+](=O)[O-])c2C1=O
inactive: dose: 87.5 mg/kg/injection, schedule: Q04DX003 (ip), vehicle: carboxymethylcellulose (CMC) 101 % of control | dose: 175.0 mg/kg/injection, schedule: Q04DX003 (ip), vehicle: carboxymethylcellulose (CMC) 97 % of control | dose: 350.0 mg/kg/injection, schedule: Q04DX003 (ip), vehicle: carboxymethylcellulose (CMC) 87 % of control

CC(C)(C)CC(C)(C)NS(=O)(=O)NC(C)(C)CC(C)(C)C
inactive: [5] 103 % of control | [7] 93 % of control | [9] 92 % of control

CC1=CC(c2ccccc2O)C(=C(C)C)CC1 (centres undefined)
inactive: dose: 50.0 mg/kg/injection, schedule: Q01DX009 (ip), vehicle: Klucel (hydroxypropylcellulose) (HPC) 96 % of control | [24] 93 % of control | dose: 200.0 mg/kg/injection, schedule: Q01DX009 (ip), vehicle: Klucel (hydroxypropylcellulose) (HPC) 89 % of control

CC(C)(C)C1CCC(NC(=O)CCl)CC1 (centres undefined)
inactive: dose: 50.0 mg/kg/injection, schedule: Q04DX003 (ip), vehicle: Klucel (hydroxypropylcellulose) (HPC) 98 % of control | [24] 103 % of control | dose: 100.0 mg/kg/injection, schedule: Q04DX003 (ip), vehicle: Klucel (hydroxypropylcellulose) (HPC) 96 % of control | dose: 200.0 mg/kg/injection, schedule: Q04DX003 (ip), vehicle: Klucel (hydroxypropylcellulose) (HPC) 102 % of control | dose: 400.0 mg/kg/injection, schedule: Q01DX009 (ip), vehicle: Klucel (hydroxypropylcellulose) (HPC) 94 % of control | dose: 400.0 mg/kg/injection, schedule: Q04DX003 (ip), vehicle: Klucel (hydroxypropylcellulose) (HPC) 104 % of control

Cc1ccc(S(=O)(=O)NC(CC(C)C)C(=O)O)cc1 (centres undefined)
inactive: [11] 101 % of control | [12] 96 % of control | [13] 98 % of control

COC(=O)C1C2C=CC(C3CCC23)C1C(=O)OC (centres undefined)
inactive: [6] 92 % of control | [8] 91 % of control | [10] 94 % of control

C=CC1C(OCC)(OCC)CS1(=O)=O (centres undefined)
inactive: [18] 93 % of control | dose: 100.0 mg/kg/injection, schedule: Q01DX009 (ip), vehicle: acetone 106 % of control | [19] 98 % of control | dose: 200.0 mg/kg/injection, schedule: Q01DX009 (ip), vehicle: acetone 100 % of control | [20] 95 % of control | dose: 400.0 mg/kg/injection, schedule: Q01DX009 (ip), vehicle: acetone 106 % of control

O=c1[nH]ccc2c(O)cccc12
inactive: [25] 95 % of control | dose: 50.0 mg/kg/injection, schedule: Q04DX003 (ip), vehicle: saline with Tween-80 101 % of control | [5] 97 % of control | [6] 101 % of control | [7] 90 % of control | [8] 94 % of control

NC1=NC(c2ccc(Cl)cc2)N(c2ccc(S(N)(=O)=O)cc2)C(N)=N1 (centres undefined)
inactive: dose: 75.0 mg/kg/injection, schedule: Q01DX001 (ip), vehicle: saline 102 % of control | dose: 150.0 mg/kg/injection, schedule: Q01DX001 (ip), vehicle: saline 96 % of control

Fc1ccc(N2CCNCC2)cc1
inactive: dose: 12.5 mg/kg/injection, schedule: Q01DX009 (ip), vehicle: saline with Tween-80 104 % of control | dose: 25.0 mg/kg/injection, schedule: Q01DX009 (ip), vehicle: saline with Tween-80 104 % of control | [25] 107 % of control

O=C(O)c1ccc(C(=O)O)o1
inactive: [1] 95 % of control | [2] 91 % of control | [3] 91 % of control

NC1c2ccccc2CC1C(=O)O (centres undefined)
inactive: [18] 95 % of control | [19] 97 % of control

CCOC(=O)C1Nc2ccc3ccccc3c2NC1=O (centres undefined)
inactive: [4] 93 % of control | [1] 97 % of control | [2] 90 % of control

COc1cc(C(=O)N(C)C2CCCCC2)cc(OC)c1OC
inactive: [6] 98 % of control | [8] 98 % of control | [10] 102 % of control

COC1OC(CNCCO)C2OC(C)(C)OC12 (centres undefined)
inactive: [21] 103 % of control | [14] 101 % of control | [22] 96 % of control | [15] 98 % of control | [23] 101 % of control | [16] 95 % of control

O=NN1CCOCC1
inactive: [17] 104 % of control | [18] 93 % of control | [19] 104 % of control
